Each structure is given as a SMILES string.

The assay concerns adjuvant arthritis. Briefly: Test of action on adjuvant arthritis (therapy). In kind it is in vivo, Lewis strain rats. The note with it: Rattus norvegicus, 96 h; oral, 1 mg/kg once a day for 4 days, in 5% gum arabic; Lewis rats with fully developed adjuvant arthritis; foot volume on day after final administration; read-out: Edema inhibition ratio (%).
On to `CCCCC(=O)Nc1cc(NS(C)(=O)=O)c(OC2CCCCC2)cc1[N+](=O)[O-]` [Test drug 1, N-[2-cyclohexyloxy-4-nitro-5-(n-valerylamino)phenyl]methanesulfonamide], for which the inhibition in vivo at 1 mg/kg came out at 46.5%.

Turning to `CS(=O)(=O)Nc1cc(NC=O)c([N+](=O)[O-])cc1OC1CCCCC1` [Test drug 2], the inhibition in vivo at 1 mg/kg worked out at 43.1%.

Consider `CC(=O)Nc1cc(NS(C)(=O)=O)c(OC2CCCCC2)cc1[N+](=O)[O-]` [Test drug 3], for which the inhibition in vivo at 1 mg/kg came to 45.7%.

Take `CCC(=O)Nc1cc(NS(C)(=O)=O)c(OC2CCCCC2)cc1[N+](=O)[O-]` [Test drug 4]: the inhibition in vivo at 1 mg/kg came to 48.5%.

`CCCC(=O)Nc1cc(NS(C)(=O)=O)c(OC2CCCCC2)cc1[N+](=O)[O-]` [Test drug 5, N-[5-(n-butyrylamino)-2-cyclohexyloxy-4-nitrophenyl)methanesulfonamide]: the inhibition in vivo at 1 mg/kg came out at 44.2%.

On to `CCOC(=O)C(=O)Nc1cc(NS(C)(=O)=O)c(OC2CCCCC2)cc1[N+](=O)[O-]` [Test drug 6], for which the inhibition in vivo at 1 mg/kg is 50.9%.

As to `CCCOC(=O)C(=O)Nc1cc(NS(C)(=O)=O)c(OC2CCCCC2)cc1[N+](=O)[O-]` [Test drug 7], the inhibition in vivo at 1 mg/kg stood at 37.2%.

For the molecule `COC(=O)CC(=O)Nc1cc(NS(C)(=O)=O)c(OC2CCCCC2)cc1[N+](=O)[O-]` [Test drug 8], the inhibition in vivo at 1 mg/kg was determined as 38%.

Consider `CCOC(=O)CCC(=O)Nc1cc(NS(C)(=O)=O)c(OC2CCCCC2)cc1[N+](=O)[O-]` [Test drug 9], for which the inhibition in vivo at 1 mg/kg is 52.8%.

Consider `CS(=O)(=O)Nc1cc(N)c([N+](=O)[O-])cc1OC1CCCCC1` [Test drug 10, N-(5-amino-2-cyclohexyloxy-4-nitrophenyl)methanesulfonamide], for which the inhibition in vivo at 1 mg/kg amounted to 46.7%.

Regarding `CS(=O)(=O)Nc1ccc([N+](=O)[O-])cc1OC1CCCCC1` [compound 11], the inhibition in vivo at 1 mg/kg amounted to 19.7%.

The values are drawn from patent US5374764A, “5-aminosulfonanilide compounds” (Taisho Pharmaceutical Co., Ltd., priority 1991, dated 1994).
